Broadly, the IC50 is the midpoint of a concentration-inhibition curve.

The target in series [1] is T1, Hexokinase-2 (Mus musculus) (UniProt O08528).
T1 sequence (whole entry): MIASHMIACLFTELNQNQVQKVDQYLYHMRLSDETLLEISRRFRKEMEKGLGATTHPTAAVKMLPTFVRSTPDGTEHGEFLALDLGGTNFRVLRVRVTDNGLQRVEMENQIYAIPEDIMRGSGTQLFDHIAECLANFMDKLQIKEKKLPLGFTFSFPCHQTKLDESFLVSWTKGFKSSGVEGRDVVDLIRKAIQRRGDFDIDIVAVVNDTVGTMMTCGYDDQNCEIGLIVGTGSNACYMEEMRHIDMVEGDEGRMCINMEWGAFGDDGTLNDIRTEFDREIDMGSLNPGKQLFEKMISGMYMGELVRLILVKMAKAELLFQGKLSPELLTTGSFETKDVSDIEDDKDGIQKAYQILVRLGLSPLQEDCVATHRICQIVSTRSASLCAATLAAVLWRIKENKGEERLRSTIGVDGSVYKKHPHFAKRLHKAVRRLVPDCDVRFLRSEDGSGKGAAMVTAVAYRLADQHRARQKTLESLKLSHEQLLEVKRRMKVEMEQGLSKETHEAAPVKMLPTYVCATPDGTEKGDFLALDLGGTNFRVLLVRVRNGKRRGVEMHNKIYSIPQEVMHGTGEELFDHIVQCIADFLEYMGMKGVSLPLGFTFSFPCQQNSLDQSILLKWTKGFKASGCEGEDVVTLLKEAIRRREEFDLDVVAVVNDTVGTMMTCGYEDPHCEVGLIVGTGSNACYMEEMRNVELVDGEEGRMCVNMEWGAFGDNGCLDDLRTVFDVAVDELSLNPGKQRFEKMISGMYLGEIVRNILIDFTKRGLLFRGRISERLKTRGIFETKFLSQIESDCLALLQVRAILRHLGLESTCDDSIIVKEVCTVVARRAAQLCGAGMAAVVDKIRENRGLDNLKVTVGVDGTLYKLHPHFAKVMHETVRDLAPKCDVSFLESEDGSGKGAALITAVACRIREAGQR
Kind of series: Induction of HK2 degradation in mouse 4T1 cells measured for 36 hrs by confocal microscopic analysis. Format: cell-based. The note with it: dose 2.0 µM.

Series [2] in a line: Toxicity in BALB/c mouse implanted with mouse 4T1 cells assessed as effect on red blood cells at 50 mg/kg, ip measured after 25 days in presence of cisplatin by routine blood test. Format: organism-based. The conditions noted are these: in vivo, 600 h, time 25 day.
Series [3] is described as follows: Toxicity in BALB/c mouse implanted with mouse 4T1 cells assessed as effect on corpuscular volume at 50 mg/kg, ip measured after 25 days by routine blood test. Format: organism-based. The conditions noted are these: in vivo, 600 h, time 25 day.
The nature of series [4]: Toxicity in BALB/c nude mouse xenografted with human MDA-MB-231 cells assessed as effect on mean corpuscular volume at 50 mg/kg, ip measured after 30 days by routine blood test. The format is organism-based. The note with it: in vivo, 720 h, time 30 day. (In xenograft studies the graft and the host belong to different species.)
Series [5] relates to 4T1. In words: Antitumor immunity against mouse 4T1 cells implanted in BALB/c mouse model assessed as accumulation of CRT at 20 uM measured for 36 hrs by ELISA analysis. The format is functional, cell-based. On the technique in general: In an ELISA, binding on a coated surface is turned into a signal by an enzyme label.
Series [6] deals with T2, Hexokinase-2 (Homo sapiens) (UniProt P52789).
T2 sequence (whole entry): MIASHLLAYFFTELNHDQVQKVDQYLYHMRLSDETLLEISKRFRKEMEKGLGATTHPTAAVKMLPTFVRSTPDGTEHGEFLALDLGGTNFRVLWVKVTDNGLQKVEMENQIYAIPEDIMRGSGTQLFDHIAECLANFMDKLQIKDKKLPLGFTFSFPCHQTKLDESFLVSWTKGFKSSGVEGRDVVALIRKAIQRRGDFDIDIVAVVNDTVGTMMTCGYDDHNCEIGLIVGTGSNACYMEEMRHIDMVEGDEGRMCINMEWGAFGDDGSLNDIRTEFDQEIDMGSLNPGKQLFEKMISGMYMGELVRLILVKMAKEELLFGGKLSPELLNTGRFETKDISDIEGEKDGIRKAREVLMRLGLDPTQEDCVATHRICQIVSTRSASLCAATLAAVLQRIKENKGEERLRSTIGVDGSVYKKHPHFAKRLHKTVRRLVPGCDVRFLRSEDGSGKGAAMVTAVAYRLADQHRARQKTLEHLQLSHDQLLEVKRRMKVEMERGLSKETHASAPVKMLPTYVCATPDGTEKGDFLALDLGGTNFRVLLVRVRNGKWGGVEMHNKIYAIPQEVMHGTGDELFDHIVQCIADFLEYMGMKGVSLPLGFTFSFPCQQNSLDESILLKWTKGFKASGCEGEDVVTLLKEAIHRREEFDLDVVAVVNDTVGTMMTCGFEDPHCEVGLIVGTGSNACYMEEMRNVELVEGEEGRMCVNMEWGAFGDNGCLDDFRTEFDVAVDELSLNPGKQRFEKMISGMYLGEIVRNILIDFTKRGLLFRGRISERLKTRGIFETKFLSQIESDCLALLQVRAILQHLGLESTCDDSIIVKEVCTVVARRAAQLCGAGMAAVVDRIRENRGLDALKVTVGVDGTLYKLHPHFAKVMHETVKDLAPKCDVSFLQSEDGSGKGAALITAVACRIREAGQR
In words: Induction of HK2 degradation in human MDA-MB-231 cells measured for 36 hrs by confocal microscopic analysis. The format is cell-based. The conditions noted are these: dose 2.0 µM.

Another series relates to MCF7. Kind of series: Antiproliferative activity against human MCF7 cells assessed as cell growth inhibition measured for 72 hrs by MTT assay. The format is functional, cell-based. The conditions noted are these: MCF7, 72 h. (In general: Formazan colour is commonly taken as a measure of viable cells.)
Series [7] can be described thus: Toxicity in BALB/c nude mouse xenografted with human MDA-MB-231 cells assessed as effect on hemoglobin level at 50 mg/kg, ip measured after 30 days by routine blood test. The format is organism-based. The conditions noted are these: in vivo, 720 h, time 30 day.
Series [8] can be described thus: Toxicity in BALB/c mouse implanted with mouse 4T1 cells assessed as effect on platelet count at 50 mg/kg, ip measured after 25 days by routine blood test. Format: organism-based. The conditions noted are these: in vivo, 600 h, time 25 day.
Series [9] can be described thus: Toxicity in BALB/c mouse implanted with mouse 4T1 cells assessed as effect on hematocrit level at 50 mg/kg, ip measured after 25 days by routine blood test. Format: organism-based. The note with it: in vivo, 600 h, time 25 day.
The test system of series [10] is 4T1. Kind of series: Antitumor activity against mouse 4T1 cells implanted in BALB/c mouse assessed as reduction in tumor volume at 50 mg/kg, ip measured after 23 days in presence of cisplatin. The format is functional, organism-based. The note with it: time 23.0 day.
Series [11] concerns 4T1. In words: Induction of mitochondrial damage in mouse 4T1 cells at 20 uM measured for 36 hrs by Hoechst 33342 staining based confocal fluorescence microscopic analysis. The format is functional, cell-based.
Series [12] deals with 4T1. Kind of series: Inhibition of glycolysis in mouse 4T1 cells assessed as reduction in oxygen consumption rate at 20 uM incubated for 1 to 4 hrs by seahorse analyzer method. Format: functional, cell-based. The conditions noted are these: time 1-4 hrs.
For another series, the system named is MDA-MB-231. Kind of series: Induction of pyroptosis in human MDA-MB-231 cells assessed as decrease in full length caspase-3 level at 20 uM incubated for 36 hrs by Western blot analysis. Format: functional, cell-based.
For series [13], the system named is 4T1. Kind of series: Antitumor activity against mouse 4T1 cells implanted in BALB/c mouse assessed as reduction in tumor growth at 50 mg/kg, ip measured after 23 days in presence of cisplatin. Format: functional, organism-based. The conditions noted are these: time 23.0 day.
Series [14] deals with 4T1. In words: Antitumor immunity against mouse 4T1 cells implanted in BALB/c mouse model assessed as increase in LDH release in cell supernatant at 20 uM measured for 36 hrs by ELISA analysis. Format: functional, cell-based.

The structures appear in SMILES notation. Active and inactive are the calls of the source. The rule behind the calls is not given here.

As to `O=C1CCC(N2C(=O)c3cccc(NCCCCNC(=O)c4nn(Cc5ccc(Cl)cc5Cl)c5ccccc45)c3C2=O)C(=O)N1` (stereo unspecified), the Activity entry in [1] is “Dose-Dependent Effect”; in series [2] it was “Non-Toxic”; in [3], “Non-Toxic”; in series [4], “Non-Toxic”; in series [6], “Dose-Dependent Effect”; in [7] it was “Non-Toxic”. The Activity entry in [8] and in series [9] was “Non-Toxic” each time. Moreover, the result in the series with 4T1 [5], in the series on 4T1 [10], with 4T1 [11], in the series on MDA-MB-231, with 4T1 [13] and with 4T1 [14] was Active. Also, the IC50 in the series on MCF7 came out at 21.7 µM. In addition, the inhibition result with 4T1 [12] was “Active”.
